MIC data for twelve compounds are collected here from ChEMBL document CHEMBL1153358, “Amide analogs of antifungal dioxane-triazole derivatives: synthesis and in vitro activities” (Bioorg Med Chem Lett, 2009).

In brackets after ≈: the same amount, converted by molar mass. A value given as a limit tells only on which side of the number the result lay.

As usually defined, the MIC is the least concentration at which growth counts as inhibited.

Common to all, as to type: functional
In one experiment the test system is Aspergillus fumigatus. Description: Antifungal activity against Aspergillus fumigatus SANK 10569.
A further experiment has as its system Nakaseomyces glabratus. Description: Antifungal activity against Candida glabrata ATCC 90030.
The next experiment has as its system Cryptococcus neoformans. Description: Antifungal activity against Cryptococcus neoformans TIMM 1855.
Experiment [1] deals with Candida albicans. Description: Antifungal activity against Candida albicans SANK 51486.
In experiment [2] the test system is Candida albicans. The experiment is described as follows: Antifungal activity against fluconazole-resistant Candida albicans TIMM3164.
A further experiment deals with Candida tropicalis. Description: Antifungal activity against Candida tropicalis ATCC 750.
In another experiment the test system is Aspergillus flavus. The experiment is described as follows: Antifungal activity against Aspergillus flavus SANK 18497.

Consider `C[C@@H](S[C@H]1CO[C@H](c2ccc(C(=O)Nc3ccc(Cl)cc3)cc2)OC1)[C@](O)(Cn1cncn1)c1ccc(F)cc1F`, for which the MIC with Aspergillus fumigatus is 0.063 µg/mL (≈ 0.105 µM); with Nakaseomyces glabratus, greater than 4 µg/mL; with Cryptococcus neoformans, 0.016 µg/mL (≈ 0.0266 µM); against Candida albicans [1], no more than 0.008 µg/mL; against Candida albicans [2] it was no more than 0.008 µg/mL; in the experiment on Candida tropicalis, 0.016 µg/mL (≈ 0.0266 µM). For the same compound, in the experiment with Aspergillus flavus, 0.125 µg/mL (≈ 0.208 µM) was the least that counted as inhibitory (MIC).
On to `C[C@@H](S[C@H]1CO[C@H](/C=C/C(=O)c2ccc(F)cc2)OC1)[C@](O)(Cn1cncn1)c1ccc(F)cc1F.O=C(O)/C=C\C(=O)O`, for which the MIC is 1 µg/mL against Aspergillus fumigatus; 1 µg/mL in the experiment on Nakaseomyces glabratus; 0.125 µg/mL in the experiment with Cryptococcus neoformans; no more than 0.008 µg/mL in the experiment with Candida albicans [1]; 0.125 µg/mL in the experiment on Candida albicans [2]; 0.5 µg/mL in the experiment on Candida tropicalis. Also, the MIC with Aspergillus flavus is greater than 4 µg/mL.
In the case of `C[C@@H](S[C@H]1CO[C@H](c2ccc(C(=O)Nc3ccc(O)cc3)cc2)OC1)[C@](O)(Cn1cncn1)c1ccc(F)cc1F`, the MIC in the experiment with Aspergillus fumigatus was 0.5 µg/mL (≈ 0.858 µM); against Nakaseomyces glabratus it was greater than 4 µg/mL; against Cryptococcus neoformans, 0.25 µg/mL (≈ 0.429 µM); in the experiment with Candida albicans [1] it was 0.016 µg/mL (≈ 0.0275 µM); against Candida albicans [2], 0.063 µg/mL (≈ 0.108 µM); against Candida tropicalis, 0.25 µg/mL (≈ 0.429 µM). The same compound displayed a minimal inhibitory concentration (MIC) against Aspergillus flavus of 1 µg/mL (≈ 1.72 µM).
For the compound `C[C@@H](S[C@H]1CO[C@H](c2ccc(C(=O)Nc3ccc(C#N)c(Cl)c3)cc2)OC1)[C@](O)(Cn1cncn1)c1ccc(F)cc1F`, the MIC was 0.125 µg/mL (≈ 0.2 µM) in the experiment on Aspergillus fumigatus; 1 µg/mL (≈ 1.6 µM) against Nakaseomyces glabratus; 0.031 µg/mL (≈ 0.0495 µM) in the experiment on Cryptococcus neoformans; no more than 0.008 µg/mL in the experiment with Candida albicans [1]; 0.016 µg/mL (≈ 0.0256 µM) with Candida albicans [2]; 0.063 µg/mL (≈ 0.101 µM) against Candida tropicalis. In the experiment on Aspergillus flavus, this compound yielded a minimum inhibitory concentration (MIC) of 0.25 µg/mL (≈ 0.399 µM).
Regarding `C[C@@H](S[C@H]1CO[C@H](c2ccc(C(=O)Nc3ccc(C#N)c(C#N)c3)cc2)OC1)[C@](O)(Cn1cncn1)c1ccc(F)cc1F`, the MIC in the experiment on Aspergillus fumigatus is 0.25 µg/mL (≈ 0.405 µM); against Nakaseomyces glabratus it was greater than 4 µg/mL; in the experiment on Cryptococcus neoformans it was 0.063 µg/mL (≈ 0.102 µM); against Candida albicans [1], no more than 0.008 µg/mL; against Candida albicans [2], 0.016 µg/mL (≈ 0.0259 µM); in the experiment with Candida tropicalis, 0.031 µg/mL (≈ 0.0503 µM). Moreover, the MIC in the experiment on Aspergillus flavus is 0.5 µg/mL (≈ 0.811 µM).
As for `C[C@@H](S[C@H]1CO[C@H](c2ccc(C(=O)Nc3ccc(C#N)cc3)cc2F)OC1)[C@](O)(Cn1cncn1)c1ccc(F)cc1F`, the MIC against Aspergillus fumigatus is 0.063 µg/mL (≈ 0.103 µM); in the experiment with Nakaseomyces glabratus, 2 µg/mL (≈ 3.28 µM); against Cryptococcus neoformans, 0.031 µg/mL (≈ 0.0509 µM); with Candida albicans [1] it was no more than 0.008 µg/mL; against Candida albicans [2] it was 0.031 µg/mL (≈ 0.0509 µM); in the experiment on Candida tropicalis, no more than 0.008 µg/mL. Moreover, in the experiment on Aspergillus flavus, 0.25 µg/mL (≈ 0.41 µM) was the least that counted as inhibitory (MIC).
On to `CC(=O)c1ccc(NC(=O)c2ccc([C@H]3OC[C@H](S[C@H](C)[C@](O)(Cn4cncn4)c4ccc(F)cc4F)CO3)cc2)cc1`, for which the MIC against Aspergillus fumigatus was 0.063 µg/mL (≈ 0.104 µM); in the experiment with Nakaseomyces glabratus, greater than 4 µg/mL; against Cryptococcus neoformans, 0.125 µg/mL (≈ 0.205 µM); against Candida albicans [1], no more than 0.008 µg/mL; against Candida albicans [2], 0.031 µg/mL (≈ 0.0509 µM); against Candida tropicalis it was 0.125 µg/mL (≈ 0.205 µM). This compound showed an MIC in the experiment with Aspergillus flavus of 0.25 µg/mL (≈ 0.411 µM).
In the case of `C[C@@H](S[C@H]1CO[C@H](c2ccc(C(=O)Nc3ccc(Br)cc3)cc2)OC1)[C@](O)(Cn1cncn1)c1ccc(F)cc1F`, the MIC is 0.063 µg/mL (≈ 0.0976 µM) against Aspergillus fumigatus; greater than 4 µg/mL against Nakaseomyces glabratus; 0.016 µg/mL (≈ 0.0248 µM) in the experiment on Cryptococcus neoformans; no more than 0.008 µg/mL against Candida albicans [1]; 0.016 µg/mL (≈ 0.0248 µM) against Candida albicans [2]; no more than 0.008 µg/mL against Candida tropicalis. In the experiment with Aspergillus flavus, this compound registered an MIC of 0.125 µg/mL (≈ 0.194 µM).
Turning to `C[C@@H](S[C@H]1CO[C@H](c2ccc(C(=O)Nc3ccc(OCC(F)(F)C(F)F)cc3)cc2)OC1)[C@](O)(Cn1cncn1)c1ccc(F)cc1F`, the MIC against Aspergillus fumigatus was 0.125 µg/mL (≈ 0.179 µM); in the experiment with Nakaseomyces glabratus it was greater than 4 µg/mL; in the experiment with Cryptococcus neoformans, 0.063 µg/mL (≈ 0.0904 µM); in the experiment with Candida albicans [1], 0.016 µg/mL (≈ 0.023 µM); against Candida albicans [2] it was 0.031 µg/mL (≈ 0.0445 µM); with Candida tropicalis, 0.125 µg/mL (≈ 0.179 µM). The same compound had an MIC against Aspergillus flavus of 0.5 µg/mL (≈ 0.718 µM).
Consider `Cc1ccc(NC(=O)c2ccc([C@H]3OC[C@H](S[C@H](C)[C@](O)(Cn4cncn4)c4ccc(F)cc4F)CO3)cc2)cc1`, for which the MIC in the experiment on Aspergillus fumigatus was 0.063 µg/mL (≈ 0.108 µM); with Nakaseomyces glabratus it was 2 µg/mL (≈ 3.44 µM); against Cryptococcus neoformans, 0.031 µg/mL (≈ 0.0534 µM); in the experiment on Candida albicans [1], no more than 0.008 µg/mL; against Candida albicans [2], 0.016 µg/mL (≈ 0.0276 µM); in the experiment on Candida tropicalis, no more than 0.008 µg/mL. In the experiment on Aspergillus flavus, this compound gave an MIC of 0.25 µg/mL (≈ 0.431 µM).
Regarding `C[C@@H](S[C@H]1CO[C@H](c2ccc(C(=O)Nc3ccc(F)cc3)cc2)OC1)[C@](O)(Cn1cncn1)c1ccc(F)cc1F`, the MIC is 0.125 µg/mL (≈ 0.214 µM) against Aspergillus fumigatus; 2 µg/mL (≈ 3.42 µM) in the experiment on Nakaseomyces glabratus; 0.031 µg/mL (≈ 0.053 µM) with Cryptococcus neoformans; no more than 0.008 µg/mL in the experiment with Candida albicans [1]; 0.016 µg/mL (≈ 0.0274 µM) in the experiment with Candida albicans [2]; 0.016 µg/mL (≈ 0.0274 µM) against Candida tropicalis. Moreover, in the experiment with Aspergillus flavus, the minimum inhibitory concentration (MIC) was found to be 0.25 µg/mL (≈ 0.428 µM).
Consider `C[C@@H](S[C@H]1CO[C@H](c2ccc(C(=O)N3CCN(c4ccccc4)CC3)cc2)OC1)[C@](O)(Cn1cncn1)c1ccc(F)cc1F`, for which the MIC against Aspergillus fumigatus was determined as 1 µg/mL (≈ 1.57 µM); in the experiment on Nakaseomyces glabratus, 2 µg/mL (≈ 3.15 µM); with Cryptococcus neoformans, 0.016 µg/mL (≈ 0.0252 µM); with Candida albicans [1] it was 0.016 µg/mL (≈ 0.0252 µM); with Candida albicans [2] it was 0.125 µg/mL (≈ 0.197 µM); in the experiment on Candida tropicalis it was 0.5 µg/mL (≈ 0.786 µM). In the experiment on Aspergillus flavus, this compound had an MIC of 2 µg/mL (≈ 3.15 µM).
